Laboratory results as given in paper PMC3575220, “Inhibition of dengue NS2B-NS3 protease and viral replication in Vero cells by recombinant retrocyclin-1” (BMC Infectious Diseases, 2012).
Where no end group is shown, it is not given here.

What was measured:
dengue NS2B-NS3pro = target: T1, dengue NS2B-NS3pro (Dengue virus type 2, UniProt P29990); experiment: Fluorogenic NS2B-NS3pro protease inhibition assay; format: biochemical, DENV-2; settings: pH 8.5, 200 mM Tris–HCl, 20 μM Boc-Gly-Arg-Arg-AMC, 2 μM enzyme, 30 min pre-incubation, 30 min reaction, fluorescence ex 350/em 440 nm, triplicates, ± SD
T1 construct: 6XHis (pQE30 vector) (N); made in house; host or cells: Escherichia coli XL1-Blue
Description: The bioassay used in this study was published by Rothan and co-workers. In brief, endpoint reaction mixtures with total volume of 200 μl were prepared consisted of 20 μM fluorogenic peptide substrate (Boc-Gly-Arg-Arg-AMC), 2 μM of recombinant NS2B-NS3pro, with or without RC-1 of varying concentrations, buffered at pH 8.5 with 200 mM Tris–HCl. The RC-1 was initially prepared in Tris–HCl buffer and assayed at five different concentrations, ranging from 9.3 - 150 μM. Three types of reactions which are buffer, buffer with enzyme and buffer with enzyme and different concentrations of RC-1were incubated at 28°C, 37°C and 40°C for 30 minutes. Subsequently, the substrate was added to each reaction mixture and incubated at same temperatures for another 30 minutes. Measurements were performed in triplicates using Tecan Infinite M200 Pro fluorescence spectrophotometer. Substrate cleavage was normalized against buffer only (control) and optimized at the emission at 440 nm upon excitation at 350 nm. The readings were then used for calculating Km values of peptide substrate and IC50 values of peptide inhibitors using non-linear regression models in GraphPad Prism 5.0 software as previously described.
Figure 4 The inhibition potential of RC-1 against the activity of DENV-2 NS2B-NS3pro. End point protease inhibition assay was carried out to evaluate the inhibitory potential of RC-1 against the protease’s ability to cleave a fluorogenic peptide substrate (Boc-Gly-Arg-Arg-AMC). The reaction mixtures consisted of 20 μM substrate, 2 μM of enzyme, with or without RC-1 of varying concentrations incubated at 28°C, 37°C or 40°C for 30 minutes. The results were normalized with the substrate alone and substrate with protease incubated at same temperatures. […] 2'; read as 1.2

DENV-2 in Vero cells = experiment: DENV-2 RNA reduction in infected Vero cells by real-time PCR; format: cell-based; settings: for reduction in viral replication / reduction in total viral RNA copies: 150 μM RC-1, MOI of 2; for reduction in total viral RNA copies: ± SD
Description: Three independent experiments were carried out for pre, simultaneous and post-infection treatments with RC-1 at 24, 48 and 72 hrs of each infection in triplicates. Vero cells were grown in a 24-well tissue culture plate (1 × 10^5 cells/well), incubated 24 hrs under optimal conditions and infected with DENV-2 (MOI of 2). For pre-treatment infection, 150 μM of RC-1 was added to the cells before virus inoculation and incubated for 24 hrs. Afterwards, DENV-2 supernatant was added, followed by incubation for 1 hr with gentle shaking every 10 min for optimal virus to cells contact. The virus supernatant was removed, and the cells were washed twice with fresh serum-free DMEM media to remove residual virus. New complete DMEM media were added and the cultures were incubated for 24, 48 and 72 hrs at 37°C, supplemented with 5% CO2. Same applications were used for simultaneous treatment infection except the peptide was mixed with the virus supernatant and incubated at 37°C for 1 h, and then inoculated onto Vero cells. The post-treatment infection was carried out after inoculation of Vero cells with DENV-2 and the complete DMEM medium was added containing the RC-1. Then, the cultures were incubated for 24, 48 and 72 hrs at 37°C and 5% CO2 with three wells of infected cells in each experiment were kept without RC-1 as controls. Cellular supernatants were collected and stored at −80°C for viral quantification using real time PCR.
For quantification of copy number of DENV-2 RNA, the standard curve was generated by 10-fold serial dilution of known copies of DENV-2 RNA. Viral RNA was extracted from culture supernatant using QIAmp viral RNA mini kit (Qiagen, Germany) according to the manufacturer’s instructions. A fragment located at the 5'UTR region of the virus genome was used to generate the primers. One-step RT-PCR using SyBr Green Master Kit (Qiagen, Germany) was used to conduct absolute quantification using ABI7300 machine from Applied Biosystems (Foster City, CA). The PCR profile was 1 cycle of 50°C for 2 min, 1 cycle of 95°C for 10 min, 40 cycles of 10 sec denaturation at 95°C, 20 sec annealing at 57.7°C with a single fluorescence emission measurement and 30 sec extension at 72°C, followed by 5 min at 72°C for final extension. Dissociation curve analysis was added to the end of each run. Results were analyzed using the company's Sequence Detection Software Version 1.3.
(§1) Figure 5 The percentage of viral reduction in Vero cells after different treatments with RC-1. (A) RC-1 was diluted to various concentrations (37.5, 75, 100, 125, 150 and 175 μM) with DMEM media supplemented with 2 % FBS and added to the cell culture. The viability of cells was analyzed at 24, 48 and 72 hrs using Non-Radioactive Cell Proliferation assay. (B) The cells were grown under the optimal conditions and infected with DENV-2 at the MOI of 2. The MNTD of RC-1 (150 μM) was used to treat infected Vero cells and the results were normalized with infected cells without RC-1 as controls. Pre, simultaneous and post-infection treatments with RC-1 were applied at 24, 48 and 72 hrs of each infection. The percentage of inhibition was the highest for simultaneous treatment compared to pre and post-treatment. (Two way ANOVA was used with Bonferroni post-test, P < 0.0001).

Vero cells = experiment: Maximum non-toxic dose test (cell proliferation assay); format: cell-based
Description: Vero cells were seeded at 1 × 10^4 cells per well in triplicate in 96 well plates and propagated at optimal conditions (37°C, 5% CO2 in humidified incubator). Recombinant RC-1 was diluted to serial concentrations (37.5, 75, 100, 125, 150 and 175 μM) with DMEM media supplemented with 2% FBS. Each dilution was tested in triplicate. Two control wells were included in each experiment: culture medium without RC-1 and culture medium with different concentrations of the RC-1 in the absence of cells to subtract the background value of RC-1 in the culture medium. The cell cultures were analyzed at 24, 48 and 72 hours using Non-Radioactive Cell Proliferation assay (Promega, USA) according to the manufacturer’s instructions.
as §1

E. coli = experiment: Disc diffusion susceptibility test, E. coli; format: cell-based; settings: 0.1 mg/ml RC-1, Mueller-Hinton agar, clear circular zone
Description: (§2) The disc diffusion susceptibility test was used to evaluate antimicrobial activity of the recombinant RC-1. The samples of recombinant RC-1 before and after refolding applications (100 μg/ml) were dropped onto a filter paper discs (0.1 mg/ml) and left to dry at room temperature. Then, the filters paper discs placed on an E. coli-inoculated Mueller-Hinton agar and a Saccharomyces cerevisiae inoculated yeast extract peptone dextrose (YPD) agar plates. Both E. coli and yeast inoculated plates were inoculated for 16 hrs at […] and 30°C, respectively.
(§3) Figure 2 Antimicrobial activity of recombinant RC-1 after refolding. Each sample of RC-1 before and after refolding (0.1 mg/ml) was dropped on filter papers discs and left to dry at room temperature. The dry filter paper discs were placed on E. coli and yeast-inoculated antibiotic-free Mueller-Hinton-gar and YPD-agar plates respectively and incubated overnight at 37°C (E. coli) or 30°C (yeast).

[1] = test system: yeast (Saccharomyces cerevisiae); experiment: Disc diffusion susceptibility test, yeast; format: cell-based; settings: 0.1 mg/ml RC-1, YPD agar, 30°C, clear circular zone
Description: as §2, §3

[2] = cited from earlier work
Excerpt: We conducted this study to evaluate the effect of RC-1, a cationic cyclic peptide on the activity of dengue protease as a target to inhibit replication of dengue virus. The RC-1 was produced inexpensively as a soluble recombinant peptide in E. coli and the tri-disulphide bonds were correctly reformed in alkaline and diluted environment. […] Furthermore, this peptide is able to provide long-lasting prote ...

[3] = up to 500 μg/ml (250 μM); cited from earlier work
Excerpt: (§4) It has been known that the compound toxicity could hinder the development of drugs against dengue virus.

different cell lines = settings: up to 500 μg/ml (250 μM); cited from earlier work
Excerpt: as §4

With “GICRCICGRGICRCICGR (also: bicyclic or more (positions not given here)) [RC-1, retrocyclin-1, disulphide cyclic peptide, theta-defensin analogue, circular, cationic, tri-disulphide bonded (Cys3-Cys16, Cys5-Cys14, Cys7-Cys12)]” the IC50 (dengue NS2B-NS3pro; 28°C) was 46.1 ± 1.7 µM, the IC50 (dengue NS2B-NS3pro; 37°C) was 21.4 ± 1.6 µM and the IC50 (dengue NS2B-NS3pro; 40°C) was 14.1 ± 1.2 µM. The “reduction in viral replication” value (DENV-2 in Vero cells; post-treatment, 48 hrs, triplicates) was 30%, the “reduction in viral replication” value (DENV-2 in Vero cells; post-treatment, 72 hrs, triplicates) was 45% and the “viral replication (in words)” value (DENV-2 in Vero cells; pre, simultaneous and post infection treatment modes, maximum non-toxic dose) was “significantly declined”. The “reduction in viral replication” value (DENV-2 in Vero cells; pre-treatment (24 hrs before virus), 48 hrs, triplicates) was 40%, the “reduction in viral replication” value (DENV-2 in Vero cells; pre-treatment (24 hrs before virus), 72 hrs, triplicates) was 38% and the “reduction in total viral RNA copies” value (DENV-2 in Vero cells; simultaneous treatment, 24 hrs, triplicates) was 45.5% ± 4.2. The “reduction in viral replication” value (DENV-2 in Vero cells; simultaneous treatment, 72 hrs) was 85%, the “reduction in total viral RNA copies” value (DENV-2 in Vero cells; simultaneous treatment, 72 hrs, triplicates) was 85% ± 7.1 and the cellular morphological abnormalities (Vero cells; Vero cells) was “no noticeable cellular morphological abnormalities”. For the same sequence, the “cellular toxicity (in words)” value (Vero cells; Vero cells, 150 μM) was “low cellular toxicity”, the “maximum non-toxic dose (MNTD)” value (Vero cells; all three incubation periods, 24, 48 and 72 hrs, 37.5-175 μM tested, DMEM 2% FBS, triplicate) was 150 µM and the antimicrobial activity (E. coli) was “exhibited antimicrobial activity”. For the same sequence, the antimicrobial activity [1] was “exhibited antimicrobial activity”, the “fold potency of cyclic RC-1 over the open chain analogue” value [2] was 3 fold and the haemolytic activity [3] was “neither haemolytic activity nor cytotoxicity”. For the same sequence, the “cytotoxicity in different cell lines” value (different cell lines) was “neither haemolytic activity nor cytotoxicity”.
